Results: PMC3598812, “Evaluation of Anti-Hyperalgesic and Analgesic Effects of Two Benzodiazepines in Human Experimental Pain: A Randomized Placebo-Controlled Study” (PLoS ONE, 2013)

Legend:
Type in all cases: in vivo, human
healthy male volunteers [1] = test: Area of dynamic mechanical hyperalgesia after intradermal capsaicin (cotton wool stroking); details: single oral dose (clobazam 20 mg, clonazepam 1 mg, tolterodine 1 mg), mean (SD)
Description: The area of dynamic mechanical hyperalgesia was determined by gently stroking a hand-held cotton wool tip on a 1 cm strip of the skin, at a rate of approximately 1 cm/s. Subjects were asked to report when the sensation changed from a non-painful to a painful sensation. The borders of dynamic hyperalgesia were delineated similarly to the determination of static hyperalgesia.

healthy male volunteers [2] = test: Pain rating (VAS) after graded von Frey hair stimulation in the capsaicin hyperalgesic area; details: VAS 0-10, single oral dose (clobazam 20 mg, clonazepam 1 mg, tolterodine 1 mg), mean (SD)
Description: Additionally, mechanical pain sensitivity was assessed using a set of seven weighted pinprick stimuli to obtain a stimulus-response function. The test was applied 1 cm inside the outer border of the pinprick hyperalgesic area, using a set of 7 graded von Frey hair mechanical stimulators with fixed stimulus intensities (custom-made at Aalborg University, Denmark). The flat contact area of the stimulators has a 0.2 mm diameter, and the 7 stimulators exert forces of 8, 16, 32, 64, 128, 256 and 512 mN. The order of stimulation was defined randomly by computer. The stimulators were applied at a rate of 2 s on/2 s off. Subjects were asked to give a pain rating for each stimulus on a 10 cm VAS. Two assessments for each stimulation were made and the mean of these 2 measurements was used for the data analysis.

healthy male volunteers [3] = test: Pressure pain detection and tolerance thresholds (pressure algometer, 2nd toe); details: mean (SD)
Description: Pain detection and tolerance thresholds were measured with an electronic pressure algometer (Somedic, Hörby, Sweden) applied at the center of the pulp of the 2nd toe. […] The pressure was increased from 0 at a rate of 30 kPa/s to a maximum pressure of 1200 kPa. Pain detection threshold was defined as the point at which the pressure sensation turned to pain. Pain tolerance threshold was defined as the point at which the subject felt the pain as intolerable. If the threshold was not reached at 1200 kPa, this value was considered as threshold. Three assessments were made and the mean of these 3 measurements were used for the data analysis.

healthy male volunteers [4] = test: Cutaneous single electrical stimulation pain threshold; details: mean (SD)
Description: (§1) Electrical stimulation was performed through electrodes placed distal to the lateral malleolus. A 25 ms, train-of-five, 1 ms, square-wave impulse (perceived as one stimulus), was delivered by a computer-controlled constant current stimulator (Digitimer DS7A, Neurospec, Letchworth Garden City, UK). The current intensity was increased from 1 mA in steps of 0.5 mA until a pain sensation was evoked.
Three assessments were made and the mean of these 3 measurements was used for the data analysis.

healthy male volunteers [5] = test: Cutaneous repeated (20 stimuli) electrical stimulation, VAS; parameters: AUC of VAS during 20 cutaneous electrical stimuli: unit not given beside the values; details: mean (SD); for Maximal VAS during 20 cutaneous electrical stimuli: VAS 0-10
Description: The stimulus burst used for single stimulus was repeated for a train of 20 pulses at 2 Hz, at an intensity corresponding to the temporal summation threshold. During this 10 s stimulation, pain intensity was continuously rated by the subject with an electronic VAS, and the area under the curve (AUC) was computed. Additionally, the maximal VAS during stimulation was recorded.

healthy male volunteers [6] = test: Intramuscular single electrical stimulation pain threshold (tibialis anterior); details: mean (SD)
Description: as §1
A needle was placed in the tibialis anterior muscle, 14 cm distal from the caudal end of the patella and 20 mm in depth. The same single and repeated stimulation patterns and the same procedure described for cutaneous stimulation were used.

healthy male volunteers [7] = test: Cuff algometry (tourniquet cuff on the leg, VAS-time AUC); parameters: AUC of VAS during cuff algometry: unit not given beside the values; details: mean (SD)
Description: A tourniquet cuff was applied to the middle of the leg, at the level of the heads of the gastrocnemius and soleus muscle. The cuff was applied at the side contralateral to the side of electrical stimulation in order not to interfere with the positioning of the intramuscular electrodes. During stimulation, the volunteer rated the pain intensity on an electronic VAS scale. The cuff was inflated with compressed air until VAS 6 was reached. The maximum allowed inflating pressure was 200 kPa. The pressure was maintained for 10 min or until the subjects rated the pain as intolerable. The area under the curve VAS-time was computed. For those subjects who felt intolerable pain before 10 min, the time when the cuff was deflated was recorded and VAS 10 was extrapolated until 10 min. Additionally, the maximal VAS during inflation was recorded.

[8] = baseline before medication, per drug session
[9] = single oral dose (clobazam 20 mg, clonazepam 1 mg, tolterodine 1 mg), 120 min after medication
[10] = single oral dose (clobazam 20 mg, clonazepam 1 mg, tolterodine 1 mg), after flumazenil 0.2 mg iv
[11] = single oral dose (clobazam 20 mg, clonazepam 1 mg, tolterodine 1 mg), 30 min after medication
[12] = single oral dose (clobazam 20 mg, clonazepam 1 mg, tolterodine 1 mg), 60 min after medication
[13] = single oral dose (clobazam 20 mg, clonazepam 1 mg, tolterodine 1 mg), 90 min after medication

## Cc1ccc(O)c([C@H](CCN(C(C)C)C(C)C)c2ccccc2)c1 [Tolterodine]
Healthy male volunteers [1]; 30 min after medication
  Area of dynamic hyperalgesia: 20.3 (11.6) cm^2
Healthy male volunteers [1]; 60 min after medication
  Area of dynamic hyperalgesia: 23.3 (09.0) cm^2
Healthy male volunteers [1]; 90 min after medication
  Area of dynamic hyperalgesia: 23.1 (11.3) cm^2
Healthy male volunteers [1]; 120 min after medication
  Area of dynamic hyperalgesia: 23.3 (09.1) cm^2
Healthy male volunteers [1]; after flumazenil 0.2 mg iv
  Area of dynamic hyperalgesia: 24.7 (14.6) cm^2
Healthy male volunteers [2]; 30 min after medication
  VAS after von Frey hair 8 mN: 1.3 (1.5)
  VAS after von Frey hair 16 mN: 1.7 (1.8)
  VAS after von Frey hair 32 mN: 2.5 (1.9)
  VAS after von Frey hair 64 mN: 3.2 (2.3)
  VAS after von Frey hair 128 mN: 3.4 (2.2)
  VAS after von Frey hair 256 mN: 4.2 (2.1)
  VAS after von Frey hair 512 mN: 4.9 (2.0)
Healthy male volunteers [2]; 60 min after medication
  VAS after von Frey hair 8 mN: 1.2 (1.3)
  VAS after von Frey hair 16 mN: 1.9 (1.9)
  VAS after von Frey hair 32 mN: 2.7 (2.2)
  VAS after von Frey hair 64 mN: 2.9 (1.8)
  VAS after von Frey hair 128 mN: 3.5 (2.2)
  VAS after von Frey hair 256 mN: 4.2 (2.1)
  VAS after von Frey hair 512 mN: 5.2 (2.0)
Healthy male volunteers [2]; 90 min after medication
  VAS after von Frey hair 8 mN: 1.2 (1.4)
  VAS after von Frey hair 16 mN: 1.6 (1.9)
  VAS after von Frey hair 32 mN: 2.2 (1.4)
  VAS after von Frey hair 64 mN: 2.8 (2.0)
  VAS after von Frey hair 128 mN: 3.1 (2.0)
  VAS after von Frey hair 256 mN: 4.2 (2.0)
  VAS after von Frey hair 512 mN: 4.9 (2.1)
Healthy male volunteers [2]; 120 min after medication
  VAS after von Frey hair 8 mN: 1.0 (0.9)
  VAS after von Frey hair 16 mN: 1.4 (1.3)
  VAS after von Frey hair 32 mN: 1.9 (1.3)
  VAS after von Frey hair 64 mN: 2.3 (1.5)
  VAS after von Frey hair 128 mN: 2.9 (2.0)
  VAS after von Frey hair 256 mN: 4.1 (2.5)
  VAS after von Frey hair 512 mN: 4.8 (2.2)
Healthy male volunteers [2]; after flumazenil 0.2 mg iv
  VAS after von Frey hair 8 mN: 1.1 (1.2)
  VAS after von Frey hair 16 mN: 1.1 (0.9)
  VAS after von Frey hair 32 mN: 2.1 (1.6)
  VAS after von Frey hair 64 mN: 2.6 (1.7)
  VAS after von Frey hair 128 mN: 2.6 (1.5)
  VAS after von Frey hair 256 mN: 4.1(1.7)
  VAS after von Frey hair 512 mN: 5.0 (2.2)
Healthy male volunteers [3]; [8]
  Pressure pain detection threshold: 403 (118) kPa
  Pressure pain tolerance threshold: 674 (221) kPa
Healthy male volunteers [3]; [9]
  Pressure pain detection threshold: 371 (88) kPa
Healthy male volunteers [3]; [10]
  Pressure pain detection threshold: 382 (118) kPa
  Pressure pain tolerance threshold: 685.0 (203) kPa
Healthy male volunteers [4]; [8]
  Pain threshold after single cutaneous electrical stimulation: 9.9 (2.2) mA
Healthy male volunteers [4]; [11]
  Pain threshold after single cutaneous electrical stimulation: 10.3 (2.6) mA
Healthy male volunteers [4]; [12]
  Pain threshold after single cutaneous electrical stimulation: 10.7 (2.3) mA
Healthy male volunteers [4]; [13]
  Pain threshold after single cutaneous electrical stimulation: 10.9 (2.7) mA
Healthy male volunteers [4]; [9]
  Pain threshold after single cutaneous electrical stimulation: 11.5 (2.3) mA
Healthy male volunteers [4]; [10]
  Pain threshold after single cutaneous electrical stimulation: 12.1 (2.6) mA
Healthy male volunteers [5]; [8]
  Maximal VAS during 20 cutaneous electrical stimuli: 4.7 (1.5)
  AUC of VAS during 20 cutaneous electrical stimuli: 379 (155)
Healthy male volunteers [5]; [11]
  Maximal VAS during 20 cutaneous electrical stimuli: 5.1 (1.6)
  AUC of VAS during 20 cutaneous electrical stimuli: 382 (134)
Healthy male volunteers [5]; [12]
  Maximal VAS during 20 cutaneous electrical stimuli: 4.8 (1.8)
  AUC of VAS during 20 cutaneous electrical stimuli: 362 (155)
Healthy male volunteers [5]; [13]
  Maximal VAS during 20 cutaneous electrical stimuli: 4.9 (1.8)
  AUC of VAS during 20 cutaneous electrical stimuli: 336 (143)
Healthy male volunteers [5]; [9]
  Maximal VAS during 20 cutaneous electrical stimuli: 4.6 (1.8)
  AUC of VAS during 20 cutaneous electrical stimuli: 328 (144)
Healthy male volunteers [5]; [10]
  Maximal VAS during 20 cutaneous electrical stimuli: 4.7 (1.6)
  AUC of VAS during 20 cutaneous electrical stimuli: 326 (136)
Healthy male volunteers [6]; [8]
  Pain threshold after single intramuscular electrical stimulation: 1.8 (1.2) mA
Healthy male volunteers [6]; [9]
  Pain threshold after single intramuscular electrical stimulation: 2.2 (1.2) mA
Healthy male volunteers [6]; [10]
  Pain threshold after single intramuscular electrical stimulation: 2.7 (1.7) mA
Healthy male volunteers [7]; [8]
  AUC of VAS during cuff algometry: 3348 (743)
Healthy male volunteers [7]; [9]
  AUC of VAS during cuff algometry: 2686 (1155)
Healthy male volunteers [7]; [10]
  AUC of VAS during cuff algometry: 2918 (1021)
